Measurements from patent publication US20070066606A1, “Benzylbenzimidazolyl derivatives” (priority 2003, published 2007).

Target: TIE-2 (Homo sapiens, UniProt Q02763)
Assay: TIE-2 kinase flashplate assay (phosphorylation of poly(Glu, Tyr) with 33P-ATP)
Type: biochemical
Details: read-out: Inhibition of TIE-2 IC50
Experimental: The TIE-2 tests can be carried out, for example, analogously to the methods indicated in WO 02/44156.
The assay determines the inhibiting activity of the substances to be tested in the phosphorylation of the substrate poly(Glu, Tyr) by Tie-2 kinase in the presence of radioactive ^33P-ATP. The phosphorylated substrate binds to the surface of a “flashplate” microtitre plate during the incubation time. After removal of the reaction mixture, the microtitre plate is washed a number of times and the radioactivity on its surface is subsequently measured. An inhibiting effect of the substances to be measured results in lower radioactivity compared with an undisturbed enzymatic reaction.

Chain of TIE-2 (Q02763 23-1124, species assumed): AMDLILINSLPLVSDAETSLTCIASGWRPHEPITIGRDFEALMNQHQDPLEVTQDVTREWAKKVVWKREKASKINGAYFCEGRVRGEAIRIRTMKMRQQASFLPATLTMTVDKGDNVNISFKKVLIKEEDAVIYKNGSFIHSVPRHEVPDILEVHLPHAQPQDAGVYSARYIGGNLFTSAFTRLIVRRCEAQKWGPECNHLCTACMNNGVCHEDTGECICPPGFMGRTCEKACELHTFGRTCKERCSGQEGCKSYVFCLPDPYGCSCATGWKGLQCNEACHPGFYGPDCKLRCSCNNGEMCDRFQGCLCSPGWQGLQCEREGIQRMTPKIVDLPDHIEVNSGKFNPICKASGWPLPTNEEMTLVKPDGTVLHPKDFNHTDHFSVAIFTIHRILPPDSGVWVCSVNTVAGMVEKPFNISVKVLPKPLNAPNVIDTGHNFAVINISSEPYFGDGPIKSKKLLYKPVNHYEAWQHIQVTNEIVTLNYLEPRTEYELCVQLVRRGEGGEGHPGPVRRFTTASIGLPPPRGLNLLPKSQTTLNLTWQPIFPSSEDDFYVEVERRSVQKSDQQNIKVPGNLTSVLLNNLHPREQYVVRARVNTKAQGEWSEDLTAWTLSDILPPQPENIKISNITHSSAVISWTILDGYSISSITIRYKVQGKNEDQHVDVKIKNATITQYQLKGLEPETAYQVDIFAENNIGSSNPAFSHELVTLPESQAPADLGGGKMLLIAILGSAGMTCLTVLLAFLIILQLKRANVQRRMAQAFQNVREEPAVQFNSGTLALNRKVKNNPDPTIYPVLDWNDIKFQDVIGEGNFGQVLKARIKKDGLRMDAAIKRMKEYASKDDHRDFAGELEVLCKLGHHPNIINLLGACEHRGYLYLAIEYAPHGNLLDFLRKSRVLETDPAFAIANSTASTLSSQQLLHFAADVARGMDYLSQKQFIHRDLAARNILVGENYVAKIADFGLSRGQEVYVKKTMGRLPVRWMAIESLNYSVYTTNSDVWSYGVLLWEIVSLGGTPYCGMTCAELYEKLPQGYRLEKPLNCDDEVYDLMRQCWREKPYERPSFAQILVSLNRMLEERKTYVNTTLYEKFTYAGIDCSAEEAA

| IC50 [nM] | Compound |
| --- | --- |
| 2780 | Nc1nc2cc(Br)ccc2n1Cc1ccc(NS(=O)(=O)c2cccc(Cl)c2Cl)cc1 [N-[4-(2-amino-5-bromo-benzimidazol-1-ylmethyl)-phenyl]-2,3-dichloro-benzenesulfonamide] |
| 320 | Nc1nc2cc(CCCO)ccc2n1Cc1ccc(NS(=O)(=O)c2cccc(Cl)c2Cl)cc1 [N-{4-[2-amino-5-(3-hydroxy-propyl)benzimidazol-1-yl-methyl]phenyl}-2,3-dichloro-benzenesulfonamide] |
